Literature values, collected in patent publication US4716040A, “Controlled absorption methyldopa pharmaceutical formulation” (Elan Corporation P.L.C., priority 1983, dated 1987).

Tests used:
[1] = system: hypertension
[2] = system: decarboxylation of dopa to dopamine

unchanged methyldopa in urine (of the methyldopa eliminated in the urine): about 25%
fraction of oral dose absorbed (oral): about one half
metabolites in urine (remainder of the methyldopa eliminated in the urine): mainly a mono-O-sulphate of methyldopa
oedema ([1]; methyldopa therapy): sometimes observed
Compound: C[C@](N)(Cc1ccc(O)c(O)c1)C(=O)O [methyldopa, 3-hydroxy-α-methyl-L-tyrosine]
effect on standing and supine blood pressure ([1]; moderate to severe hypertension): reducing the standing blood pressure and also reduces the supine blood pressure
maximum hypotensive effect may not occur until ([1]; oral): second day of treatment
onset of effects after oral administration ([1]; oral): about 2 hours
some effect still usually apparent after a dose ([1]; oral): 24 h
decarboxylation of dopa to dopamine [2]: inhibits
